Measurements published in patent US20050148634A1, “1-N-Aminobenzimidazole derivatives” (ZERIA PHARMACEUTICAL CO., LTD, priority 2002, published 2005).
Structures can show the parent of a compound that is named as a salt.

Tests used:
[1] = molecular target: T1, H+/K+-ATPase (Sus scrofa, UniProt P19156); experiment: Test 1 proton pump inhibitory effect: H+/K+-ATPase enzyme inhibiting activity at pH 1; type: biochemical; conditions: swine stomach enzyme sample; test compound pretreated in pH 1 hydrochloric acid solution with 50% DMSO for 15 minutes; ATP substrate
T1 construct: An interface fraction obtained by the centrifugation was collected; from tissue; host or cells: swine stomach mucosal layer, membrane fraction from the sucrose interface
T1 sequence (P19156 2-1034 limits assumed): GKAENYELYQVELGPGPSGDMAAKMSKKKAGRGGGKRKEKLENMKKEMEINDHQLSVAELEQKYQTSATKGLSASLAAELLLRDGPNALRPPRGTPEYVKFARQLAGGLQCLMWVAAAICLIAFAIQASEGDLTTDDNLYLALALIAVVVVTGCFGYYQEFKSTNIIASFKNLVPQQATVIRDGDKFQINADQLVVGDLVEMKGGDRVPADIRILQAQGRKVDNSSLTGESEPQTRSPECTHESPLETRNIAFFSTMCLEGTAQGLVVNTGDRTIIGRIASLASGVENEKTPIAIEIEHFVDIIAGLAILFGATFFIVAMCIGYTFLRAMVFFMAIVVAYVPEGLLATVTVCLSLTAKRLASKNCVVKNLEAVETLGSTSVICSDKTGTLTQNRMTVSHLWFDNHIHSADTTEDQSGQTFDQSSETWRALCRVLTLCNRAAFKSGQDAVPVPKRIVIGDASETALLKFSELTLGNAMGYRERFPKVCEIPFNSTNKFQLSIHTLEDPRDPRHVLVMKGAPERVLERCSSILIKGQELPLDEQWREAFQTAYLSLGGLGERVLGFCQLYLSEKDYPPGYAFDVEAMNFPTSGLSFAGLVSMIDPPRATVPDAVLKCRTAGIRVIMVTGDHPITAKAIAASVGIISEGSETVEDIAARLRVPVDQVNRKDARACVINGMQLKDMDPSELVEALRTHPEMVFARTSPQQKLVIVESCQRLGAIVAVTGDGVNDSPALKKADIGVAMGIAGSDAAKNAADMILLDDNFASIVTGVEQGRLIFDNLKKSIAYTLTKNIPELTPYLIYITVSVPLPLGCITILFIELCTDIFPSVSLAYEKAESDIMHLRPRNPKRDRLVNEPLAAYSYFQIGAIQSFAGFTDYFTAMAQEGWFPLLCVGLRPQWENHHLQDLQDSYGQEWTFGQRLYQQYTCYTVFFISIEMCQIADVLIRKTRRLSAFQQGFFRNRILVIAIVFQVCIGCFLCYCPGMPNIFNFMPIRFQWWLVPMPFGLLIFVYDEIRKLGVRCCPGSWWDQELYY
T1 sequence (P18434 whole entry partner): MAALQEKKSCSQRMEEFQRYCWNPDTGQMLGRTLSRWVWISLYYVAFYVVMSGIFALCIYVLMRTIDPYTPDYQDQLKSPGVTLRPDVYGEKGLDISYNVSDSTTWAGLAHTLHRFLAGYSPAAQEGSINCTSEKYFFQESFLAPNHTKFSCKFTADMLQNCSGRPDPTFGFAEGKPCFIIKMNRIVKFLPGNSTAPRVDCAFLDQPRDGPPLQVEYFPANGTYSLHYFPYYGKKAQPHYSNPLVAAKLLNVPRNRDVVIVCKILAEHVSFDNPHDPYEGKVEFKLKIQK
Protocol: Test 1 (Proton Pump Inhibitory Effect)
(1) Preparation of H^+/K^+-ATPase Enzyme Sample
A swine stomach which had been stored frozen was separated into a muscularis and a mucosal layer. After the mucosal layer was disrupted with a mixer in 5 volumes of 20 mmol/L tris-HCl buffer containing 0.25 mol/L of sucrose and 1 mmol/L of EGTA (pH 7.4, hereafter abbreviated as “tris-HCl buffer”), centrifugation was conducted at 9,000×g for 30 minutes. The supernatant was gently overlaid on 20 mmol/L tris-HCl buffer containing 30% of sucrose and 1 mmol/L of EGTA (pH 7.4, 8 mL), followed by ultracentrifugation at 100,000×g for 60 minutes. An interface fraction obtained by the centrifugation was collected and subjected to centrifugation twice under 113,000×g for 60 minutes. The sediment was suspended with tris-HCl buffer, and the suspension was homogenized at low rotational speed to provide an enzyme sample. The enzyme sample was stored frozen at −80° C. Using the method reported by Smith et al. (Anal. Biochem., 150, 76-85 (1985)), the thus-obtained sample was quantitatively analyzed for its protein content with a BCA protein assay reagent. The above procedure was all conducted under water cooling.
(2) Discussion about H+/K^+-ATPase Enzyme Inhibiting Activity at pH 1
Following a method making use of a method for the quantitation of inorganic phosphorus as a degradation product (Biochem. Biophys. Res. Commun., 40, 880-886 (1970)), an assay of H^+/K^+-ATPase enzyme inhibiting activity was performed by using ATP as a substrate. As a hydrochloric acid solution for the pretreatment of each test compound, a 1×10^−1 mol/L (pH 1) solution of hydrochloric acid with 50% DMSO contained therein was used. Solutions of each test compound at various concentrations were added to aliquots of the hydrochloric acid solution such that the solutions were diluted 1,000-fold, and the thus-diluted solutions were left over at room temperature for 15 minutes. […] 840-μL Aliquots of an enzyme solution (5 μg proteins) diluted with the TE buffer were then added. After incubated at 37° C. for 30 minutes, 50-μL aliquots of 40 mmol/LATP solution (dissolved in the TE buffer free of KCl) were added to initiate an enzymatic reaction (total volume: 1 mL, final ATP concentration: 2 mmol/L). Subsequent to incubation at 37° C. for 30 minutes, 2-mL aliquots of ice-cold 12% trichloroacetic acid were added to terminate the enzymatic reaction. A molybdenum reagent (1 mL; 3.75% ammonium molybdate/1.5 mol/L sulfuric acid) and butyl acetate (5 mL) were added. After vigorous shaking and mixing for 5 minutes, the absorbance of a butyl acetate layer was measured at 310 nm. From absorbances obtained by dissolving KH2PO4 solutions of various concentrations in aliquots of an 8% TCA solution and performing a similar procedure, a standard curve was prepared to perform a conversion of each quantity of inorganic phosphorus. The assay was conducted in duplicate. From a difference between an average quantity of inorganic phosphorus in the case of the KCl-containing TE buffer and an average quantity of inorganic phosphorus in the case of the KCl-free TE buffer, a residual activity was determined. Supposing that the activity of the control value (DMSO) was 100%, the percent inhibition of the compound was calculated. As the inhibition potency of each test compound, an IC50 value was calculated and presented. The test compounds were al used by dissolving them in dimethyl sulfoxide immediately before their use.

[2] = tested on: histamine-stimulated gastric acid secretion; experiment: Test 2 gastric acid secretion inhibitory effect, acute fistula method; type: in vivo, Sprague-Dawley (SD) rats; conditions: male SD rats, administered into the duodenum; total gastric acid secreted on 3rd-5th hours; Probit method
Protocol: Test 2 (Gastric Acid Secretion Inhibitory Effect)
(1) As laboratory animals, seven-week old male Sprague-Dawley (SD) rats were purchased from CHARLES RIVER JAPAN, INC. Subsequent to preliminary rearing for 5 days or longer, they were used in an experiment.
Each test medicine was suspended or dissolved in a 0.5% carboxymethylcellulose sodium solution to prepare a volume of 2.5 mL/kg.
(2) Measurement of Gastric Acid Secretion
Using rats fasted for 18 hours, histamine-stimulated gastric acid secretion in an acute fistula method following the method reported by Hiramatsu et al. (Dig. Dis. Sci., 39, 689-697 (1994)) was measured. Described specifically, each rat was lightly anesthetized with diethyl ether. After that, a winged tube needle with 3.8% citric acid solution filled therein was caused to dwell in the caudal vein. Celiotomy was performed, and the pyloric part of the stomach was ligated. A small hole was then formed in the duodenum, and a feeding tube with physiological saline filled therein was caused to dwell there. After the interior of the stomach was washed with physiological saline, a polyethylene-made fistula tube (inner diameter: 4 mm) was fitted to the proventriculus part and an incised part of the proventriculus was ligated to hold the fistula tube in place. The stomach and duodenum were returned into the abdominal cavity. Celiotomy was performed with the fistula tube and feeding tube being left extending outside, and the rat was placed in a Ballman Cage Type II. Histamine was continuously injected through the winged needle allowed to dwell in the caudal vein (8 mg/kg/h, 1.38 mL/h). Fifteen minutes later, the gastric juice was sampled, and after that, the gastric juice was sampled at intervals of 1 hour. After the amount of each gastric juice sample was recorded, it was titrated with 0.1 mol/L NaOH to a final point of pH 7.0. From the volume required for the titration, the acidity was calculated. The quantity of the secreted gastric acid was determined from the product of the amount of the gastric juice and the acidity. Incidentally, the rats were divided into groups such that the total amount of the first gastric juice samples became equal in each group. Each test medicine was administered in a volume of 2.5 mL/kg into the duodenum through the feeding tube fitted beforehand in the duodenum. To a control group, 0.5% Na—CMC solution was administered.
(3) Analysis of the Results
From the results so obtained, data were presented in terms of average ±S.D. The sum of quantities of gastric acid secreted on the 3rd, 4th and 5th hours after the first sampling was recorded as a total quantity of secreted gastric acid. The percent inhibition in each group was calculated from the total quantity of secreted gastric acid in the control group and the total quantity of secreted gastric acid in the group. From the percent inhibition in each group, the 50% effective dose (ED50) was next calculated by the Probit method.

[3] = molecular target: T2, human CYP2C19 (Homo sapiens, UniProt P33261); experiment: Test 3 human CYP2C19 activity inhibition test (S-(+)-mephenyloin to 4'-hydroxymephenyloin); type: in vitro ADME; conditions: test compound 10 μM; microsomes from human CYP2C19 expression system; formed 4'-hydroxymephenyloin compared with control
T2 construct: purchased Sumitomo Chemical Co., Ltd
T2 sequence (P33261 whole entry): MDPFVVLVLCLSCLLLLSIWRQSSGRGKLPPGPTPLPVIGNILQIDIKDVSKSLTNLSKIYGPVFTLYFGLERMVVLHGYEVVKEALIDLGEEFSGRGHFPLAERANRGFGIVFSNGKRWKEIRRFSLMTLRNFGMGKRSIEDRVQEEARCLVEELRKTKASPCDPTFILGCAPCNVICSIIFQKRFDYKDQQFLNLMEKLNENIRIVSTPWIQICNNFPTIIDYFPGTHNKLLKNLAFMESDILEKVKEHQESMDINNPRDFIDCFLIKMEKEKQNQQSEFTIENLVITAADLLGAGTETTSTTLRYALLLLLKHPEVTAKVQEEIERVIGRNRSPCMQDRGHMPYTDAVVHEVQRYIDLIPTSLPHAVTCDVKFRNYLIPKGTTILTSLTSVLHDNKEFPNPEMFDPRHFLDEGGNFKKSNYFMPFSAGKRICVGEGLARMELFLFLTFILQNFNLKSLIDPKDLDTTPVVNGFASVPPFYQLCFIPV
Protocol: Test 3 (Human CPY2C19 Activity Inhibition Test)
CYP2C19 specifically induces the metabolic reaction of from S-(+)-mephenyloin into 4′-hydroxymephenyloin. Using the CYP2C19 expression system, the inhibitory effect of each test substance was investigated based on the amount (concentration) of formed 4′-hydroxymephenylion as an index of CYP2C19 activity.
a) Metabolic Activity Test
As a reaction mixture, a 125 μmol/L solution of S-(+)-mephenyloin in methanol (50 μL) and a 25 μmol/L solution of each test substance in methanol (0, 10, 100 or 200 μL) were added to 10-mL test tube made of glass, and the solvent was distilled off under a nitrogen gas stream (40° C.).
After incubated at 37° C. for 10 minutes, a 12% aqueous solution of perchloric acid (50 μL) was added to terminate the reaction.
Subsequent to the termination of the reaction, 10 μg/mL methyl p-hydroxybenzoate (50 μL) as an internal standard (I.S.) and diethyl ether (2 mL) were added. The resulting mixture was shaken for 10 minutes, and then centrifuged (3,000 rpm, 10 minutes). The organic layer was separately collected, and under a nitrogen gas stream (40° C.), the solvent was distilled off. The residue was dissolved in a mobile phase (200 μL), and an analysis was conducted by high performance liquid chromatography (HPLC).
Using a solution of 4′-hydroxymephenyloin in lieu of the S-(+)-mephenyloin solution, a calibration line was prepared following the above-described reaction method. Quantitation was conducted based on a peak area ratio of 4′-hydroxymephenyloin to the I.S. Comparing the formed amount of 4′-hydroxymephenyloin as a control with that of 4′-hydroxymephenyloin at the time of the existence of the test compound, the comparison result was used as an index of activity.
HPLC was conducted under the following HPLC conditions A or HPLC conditions B. […]

melting point | Structure (SMILES) | IC50 [1] | other results
– | Cc1c(OCC(F)(F)F)ccnc1C[S+]([O-])c1nc2ccccc2n1NCC(O)c1ccccc1 (mixture of isomers) [Example 51] | 3320 nM | Gastric acid secretion inhibitory effect ED50 [2]: 2.4 mg/kg
– | Cc1c(OCC(F)(F)F)ccnc1C[S+]([O-])c1nc2ccccc2n1NCc1ccccc1 (racemic) [Example 49] | 1030 nM | –
– | Cc1c(OCC(F)(F)F)ccnc1C[S+]([O-])c1nc2ccccc2n1NCCc1ccccc1 (racemic) [Example 50] | 870 nM | –
– | Cc1c(OCC(F)(F)F)ccnc1C[S+]([O-])c1nc2ccccc2n1NCCCCCO (racemic) [Example 54] | 3880 nM | –
– | C=CCNn1c([S+]([O-])Cc2nccc(OCC(F)(F)F)c2C)nc2ccccc21 (racemic) [Example 64] | 2280 nM | –
111 to 113 °C | Cc1c(OCC(F)(F)F)ccnc1C[S+]([O-])c1nc2ccccc2n1N (single isomer, unassigned; (+)) (as salt: tartrate) [(+) isomer of Example 1, (+)-1-Amino-2-[[4-(2,2,2-trifluoroethoxy)-3-methylpyridin-2-yl]methylsulfinyl]benzimidazole] | – | –
130 to 133 °C | CBc1cc(C)nc(C[S+]([O-])c2nc3ccccc3n2N)c1 (stereo not drawn) [Example 7] | – | –
194 to 195 °C | Cc1c(OCC(F)(F)F)ccnc1C[S+]([O-])c1nc2cc(OC(F)F)ccc2n1N (stereo not drawn) [Example 68] | 3200 nM | –
174 to 175 °C | COc1ccc2nc([S+]([O-])Cc3ncc(C)c(OC)c3C)n(N)c2n1 (stereo not drawn) [Example 78] | – | CYP2C19 activity inhibition (%) [3]: 62%
